Laboratory results from PMC449707 (BMC Pharmacology, 2004).

Test system: whole bone marrow cells
Assay: Fibroblastic colony forming unit
Type: cell-based, rat
Conditions: for effect on colony number of co-treatment with exogenous PGE2: 10 μM PDE inhibitor plus PGE2 as low as 0.1 nM; for effect on colony number, agent alone: 10 μM, CFU-f assay, no exogenous PGE2

Row | SMILES | effect on colony number of co-treatment with exogenous PGE2 | effect on colony number, agent alone
1 | CC(C)Cn1c(=O)n(C)c(=O)c2[nH]cnc21 [IBMX, isobutylmethylxanthine] | almost maximal responses | significant stimulation in colony number
2 | COc1ccc(C2CNC(=O)C2)cc1OC1CCCC1 (stereo not shown) [rolipram] | almost maximal responses | significant stimulation in colony number
